The values below come from patent US10828305B2 (SHANGHAI PHARMACEUTICALS HOLDING CO., LTD., priority 2016, dated 2020).

For test [1], the system named is BT-474. In words: Proliferation inhibition assay in vitro, BT-474 (CellTiter-Glo). The format is cell-based. Conditions: Homo sapiens, 72 hours, read-out: IC50(nM) cell BT-474. In short, it runs like this:
(§1)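 Cells were seeded at 8.8×10^4 cells/mL for BT-474 or 6.6×10^4 cells/mL for N87 and grown overnight. Compound was added at 9 concentrations in duplicate for 72 h at 37 °C, 5% CO2. Viability was measured by CellTiter-Glo.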

Test [2] addresses EGFR kinase (Homo sapiens, UniProt P00533). Kind of test: Enzymatic experiment on EGFR (HTRF kinEASE-TK). It is filed as biochemical. Conditions: ATP 1.65 μM; read-out: Kinase IC50 (nM) in vitro EGFR. In short, it runs like this:
(§2)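 HTRF kinEASE-TK with biotinylated TK substrate in HEPES pH 7.0 buffer containing MnCl2, MgCl2 and DTT; ErbB2 at 0.06 ng/μl with 4 μM ATP, EGFR at 0.06 units/μl with 1.65 μM ATP, 30 min at room temperature after 5 min enzyme/substrate–compound preincubation. Ten-point 3-fold dilutions; Eu antibody/SA-XL665 detection, 665/620 ratio.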

Test [3] concerns the target ErbB2 kinase (Homo sapiens, UniProt P04626). Kind of test: Enzymatic experiment on ErbB2 (HTRF kinEASE-TK). It is filed as biochemical. Conditions: ATP 4 μM; read-out: Kinase IC50 (nM) in vitro ErbB2. The essentials: as §2
For test [4], the system named is N87. In words: Proliferation inhibition assay in vitro, N87 (CellTiter-Glo). The format is cell-based. The following applies: Homo sapiens; 72 hours; read-out: IC50(nM) cell N87. The essentials: as §1
Test [5] has as its system human gastric cancer NCI-N87 xenograft. In words: HER2 overexpressing human gastric cancer NCI-N87 xenograft model in nude mice. The following applies: 50MPK (BID), oral, 22 days. The format is in vivo, Balb/c nude mice.
Test [6] relates to human breast cancer BT-474 xenograft. Conditions: 50MPK (BID), oral, 20 days.

Sequence of EGFR kinase (P00533 25-1210): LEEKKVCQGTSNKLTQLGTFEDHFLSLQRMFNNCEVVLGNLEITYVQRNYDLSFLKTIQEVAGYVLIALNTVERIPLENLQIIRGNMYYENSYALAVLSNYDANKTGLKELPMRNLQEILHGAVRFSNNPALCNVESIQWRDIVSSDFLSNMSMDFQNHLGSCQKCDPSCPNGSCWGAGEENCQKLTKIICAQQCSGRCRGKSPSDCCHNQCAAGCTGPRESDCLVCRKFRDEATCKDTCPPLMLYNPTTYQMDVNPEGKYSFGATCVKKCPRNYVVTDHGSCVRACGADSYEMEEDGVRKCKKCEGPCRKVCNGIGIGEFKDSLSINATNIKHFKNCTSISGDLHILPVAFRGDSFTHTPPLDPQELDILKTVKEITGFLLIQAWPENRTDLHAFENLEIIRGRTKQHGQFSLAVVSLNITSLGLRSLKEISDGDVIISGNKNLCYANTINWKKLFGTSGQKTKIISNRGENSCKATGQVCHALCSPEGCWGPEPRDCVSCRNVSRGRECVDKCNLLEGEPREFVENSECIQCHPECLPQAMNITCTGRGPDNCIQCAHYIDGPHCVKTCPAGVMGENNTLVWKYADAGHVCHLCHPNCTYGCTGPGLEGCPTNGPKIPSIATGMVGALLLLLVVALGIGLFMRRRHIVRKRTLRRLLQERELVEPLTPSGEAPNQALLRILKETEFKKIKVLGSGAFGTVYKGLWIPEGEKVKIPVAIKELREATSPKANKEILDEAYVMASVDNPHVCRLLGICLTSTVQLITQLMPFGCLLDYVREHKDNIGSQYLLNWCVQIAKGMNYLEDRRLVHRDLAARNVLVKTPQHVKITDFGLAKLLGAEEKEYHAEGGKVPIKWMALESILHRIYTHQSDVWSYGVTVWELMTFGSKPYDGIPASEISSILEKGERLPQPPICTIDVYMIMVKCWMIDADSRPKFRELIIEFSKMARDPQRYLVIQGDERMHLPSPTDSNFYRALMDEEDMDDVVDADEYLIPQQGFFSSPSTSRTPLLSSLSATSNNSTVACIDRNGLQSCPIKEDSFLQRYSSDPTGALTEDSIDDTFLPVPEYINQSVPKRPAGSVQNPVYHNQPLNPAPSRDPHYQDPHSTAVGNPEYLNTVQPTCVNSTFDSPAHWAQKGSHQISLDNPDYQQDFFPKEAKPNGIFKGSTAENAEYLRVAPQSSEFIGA
Sequence of ErbB2 kinase (P04626 23-1255): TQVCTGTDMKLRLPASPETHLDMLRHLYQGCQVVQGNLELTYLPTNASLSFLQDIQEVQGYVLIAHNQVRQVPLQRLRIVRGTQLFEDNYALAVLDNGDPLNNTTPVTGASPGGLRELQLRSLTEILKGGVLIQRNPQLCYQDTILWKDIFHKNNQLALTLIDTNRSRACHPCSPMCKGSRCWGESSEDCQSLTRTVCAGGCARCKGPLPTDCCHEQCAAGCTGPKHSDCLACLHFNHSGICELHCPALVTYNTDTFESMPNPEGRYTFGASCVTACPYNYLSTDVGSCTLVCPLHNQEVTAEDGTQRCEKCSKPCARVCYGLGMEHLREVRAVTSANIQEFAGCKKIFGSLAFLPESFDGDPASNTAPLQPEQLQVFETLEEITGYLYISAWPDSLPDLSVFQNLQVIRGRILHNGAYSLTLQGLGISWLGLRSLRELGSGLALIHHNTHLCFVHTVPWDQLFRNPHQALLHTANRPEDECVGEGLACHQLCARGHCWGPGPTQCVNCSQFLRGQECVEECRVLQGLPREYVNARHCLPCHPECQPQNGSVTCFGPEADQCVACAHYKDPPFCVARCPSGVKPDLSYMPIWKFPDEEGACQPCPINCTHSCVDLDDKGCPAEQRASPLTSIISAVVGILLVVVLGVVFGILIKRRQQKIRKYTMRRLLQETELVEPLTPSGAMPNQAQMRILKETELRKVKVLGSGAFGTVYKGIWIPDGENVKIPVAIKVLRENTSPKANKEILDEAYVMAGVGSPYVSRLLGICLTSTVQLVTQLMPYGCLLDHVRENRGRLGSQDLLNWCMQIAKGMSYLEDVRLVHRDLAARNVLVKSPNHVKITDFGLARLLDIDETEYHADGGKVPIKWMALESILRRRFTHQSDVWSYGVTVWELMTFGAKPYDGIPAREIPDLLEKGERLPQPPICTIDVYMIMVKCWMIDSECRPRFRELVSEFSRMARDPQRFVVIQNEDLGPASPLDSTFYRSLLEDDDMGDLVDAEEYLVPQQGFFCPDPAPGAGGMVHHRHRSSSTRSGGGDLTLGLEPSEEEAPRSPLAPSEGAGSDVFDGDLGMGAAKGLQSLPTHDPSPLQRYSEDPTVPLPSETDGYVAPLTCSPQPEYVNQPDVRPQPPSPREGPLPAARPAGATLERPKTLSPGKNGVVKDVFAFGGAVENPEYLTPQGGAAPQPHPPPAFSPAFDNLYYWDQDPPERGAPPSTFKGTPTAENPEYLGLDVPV

Regarding `Cc1cc(Nc2ncnc3ccc(-c4ccc(N)nn4)cc23)ccc1Oc1cc2nncn2cn1` [Embodiment 118, N-(4-([1,2,4]triazolo[4,3-c]pyrimidin-7-yloxy)-3-methylphenyl)-6-(6-aminopyridazin-3-yl)quinazolin-4-amine], the IC50 in test [1] is 73.4 nM; in test [2], 28.4 nM; in test [3], 8.59 nM; in test [4] it was 389 nM.
For `C=CC(=O)N1CCC=C(c2ccc3ncnc(Nc4ccc(Oc5cc6nncn6cn5)c(C)c4)c3c2)C1` [Embodiment 120, 1-(5-(4-((4-([1,2,4]triazolo[4,3-c]pyrimidin-7-yloxy)-3-methylphenyl)amino)quinazolin-6-yl)-3,6-dihydropyridin-1(2H)-yl)prop-2-en-1-one], in that order: 5.85 nM, 7.41 nM, 1.31 nM and 2.68 nM.
For `Cc1cc(Nc2ncnc3ccc(/C=C/CNC(=O)C4CC4)cc23)ccc1Oc1cc2nncn2cn1` [Embodiment 122, (E)-N-(3-(4-((4-([1,2,4]triazolo[4,3-c]pyrimidin-7-yloxy)-3-methylphenyl)amino)quinazolin-6-yl)allyl)cyclopropylcarboxamide], in that order: 37 nM, 87.2 nM, 2.7 nM and 92 nM.
With `Cc1cc(Nc2ncnc3ccc(-c4ccc(CNCCS(C)(=O)=O)n4C)cc23)ccc1Oc1cc2nncn2cn1` [Embodiment 123, N-(4-([1,2,4]triazolo[4,3-c]pyrimidin-7-yloxy)-3-methylphenyl)-6-(1-methyl-5-(((2-(methylsulfonyl)ethyl)amino)methyl)-1H-pyrrol-2-yl)quinazolin-4-amine], the IC50 in test [1] amounted to 219 nM; in test [2], 32.8 nM; in test [3] it was 4.4 nM; in test [4], 429 nM.
With `C=CC(=O)Nc1ccc2ncnc(Nc3ccc(Oc4cc5nncn5cn4)c(C)c3)c2c1` [Embodiment 124, N-(4-((4-([1,2,4]triazolo[4,3-c]pyrimidin-7-yloxy)-3-methylphenyl)amino)quinazolin-6-yl) acrylamide], the IC50 worked out at 9.5 nM in test [1], 2.3 nM in test [2], 2.8 nM in test [3] and 11.4 nM in test [4].
With `C=C(F)C(=O)Nc1cc2c(Nc3ccc(Oc4cc5nncn5cn4)c(C)c3)ncnc2cc1F` [Embodiment 125, N-(4-((4-([1,2,4]triazolo[4,3-c]pyrimidin-7-yloxy)-3-methylphenyl)amino)-7-fluoroquinolin-6-yl)-2-fluoroacryamide], the IC50 was determined as 13.6 nM in test [1], 14.7 nM in test [2], 3.4 nM in test [3] and 6.8 nM in test [4].
Taken in the same sequence, the figures for `Cc1cc(Nc2ncnc3ccc(NC4=NC(C)(C)CO4)cc23)cc(C)c1Oc1cc2nncn2cn1` [Embodiment 126, N^4-(4-([1,2,4]triazolo[4,3-c]pyrimidin-7-yloxy)-3,5-dimethylphenyl)-N^6-(4,4-dimethyl-4,5-dihydrooxazol-2-yl)quinazolin-4,6-diamine] were 143 nM, 53 nM, 6.7 nM and 82.9 nM.
Taken in the same sequence, the figures for `C=C(F)C(=O)Nc1cc2c(Nc3ccc(Oc4cc5nncn5cn4)c(C)c3)ncnc2cc1OCC` [Embodiment 127, N-(4-((4-([1,2,4]triazolo[4,3-c]pyrimidin-7-yloxy)-3-methylphenyl)amino)-7-ethoxyquinazolin-6-yl)-2-fluoroacrylamide] were 8 nM, 6.6 nM, 5.6 nM and 30.7 nM.
On to `CC(=O)C(=O)Nc1ccc2ncnc(Nc3ccc(Oc4cc5nncn5cn4)c(C)c3)c2c1` [Embodiment 128, N-(4-((4-([1,2,4]triazolo[4,3-c]pyrimidin-7-yloxy)-3-methylphenyl)amino)quinazolin-6-yl)-2-oxopropionamide], for which the IC50 in test [1] was 484 nM; in test [2] it was 28.7 nM; in test [3], 14.8 nM; in test [4], 868 nM.
With `CCC1COC(Nc2ccc3ncnc(Nc4ccc(Oc5cc6nncn6cn5)c(C)c4)c3c2)=N1` (stereo not drawn) [Embodiment 129, N^4-(4-([1,2,4]triazolo[4,3-c]pyrimidin-7-yloxy)-3-methylphenyl)-N^6-(4-ethyl-4,5-dihydrooxazol-2-yl)quinazolin-4,6-diamine], the IC50 in test [1] amounted to 189 nM; in test [2], 56.9 nM; in test [3], 4.4 nM; in test [4], 121 nM.
As for `CS(=O)(=O)CCNCc1ccc(-c2ccc3ncnc(Nc4ccc(OCc5cccc(F)c5)c(Cl)c4)c3c2)o1` [Lapatinib, reference compound], the “tumor volume inhibition rate (GI %)” value stood at 87.8% in test [5] and 19.2% in test [6].
